The text below walks through data of patent US6333428A, “6-fluorobicyclo[3.1.0]hexane derivatives” (Taisho Pharmaceutical Co., Ltd., priority 1998, dated 2001).

SMILES strings stand for the structures. Like-named read-outs stand apart in the source and are kept apart here.

The target in this experiment is T1, metabotropic glutamate receptors mG1uR2 (Rattus norvegicus, UniProt P31421).
T1 construct: expressed in transfected cells
The experiment is described as follows: Effect of Test Compounds on cAMP Accumulation (inhibition of Forskolin-stimulated cAMP accumulation in CHO cells stably expressing mGluR2). It counts as cell-based. The method, then:
After the medium was replaced with an L-glutamine free medium, they were cultured for 4 hours, and the supernatant liquid was aspirated. After adding 150 μl of PBS(+)-IBMX (10 mM PBS(-), 1 mM MgC12,1 mM CaCl2, 1 mM IBMX), incubation was conducted at 37° C. under the presence of 5% CO2 for 20 minutes. Once again the supernatant liquid was suctioned off, 60 μl of 10^-5 M Forskolin and PBS (+)-IBMX containing the specimens listed in Table 1 between 10^-10 and 10^-4 M were added, incubation was carried out for 15 minutes at 37° C. under the presence of 5% CO2, and a study was carried out for the inhibitory effect of the agonists on the Forskolin stimulation cAMP accumulation quantity [for control, the conditions were set to Forskolin with no addition of the compounds (Tanabe et al., Neuron, 8, 169-179 (1992))]. The reactions were halted by adding 100 μl of ice-cooled ethanol, the entire quantity of the supernatant liquid was collected in a separate plate, then was dried up at normal temperature with an evaporator, and was kept at -20° C. In the dried-up samples, the quantity of cAMP was measured using a cAMP EIA kit (from the Amasham company). The control value was subtracted from each cAMP quantity.

Setting [1] is: CHO cells stably expressing mGluR2, 10^-5 M Forskolin, specimens 10^-10 to 10^-4 M, 15 minutes at 37° C., cAMP EIA kit, agonist.

T1 sequence (P31421 19-872): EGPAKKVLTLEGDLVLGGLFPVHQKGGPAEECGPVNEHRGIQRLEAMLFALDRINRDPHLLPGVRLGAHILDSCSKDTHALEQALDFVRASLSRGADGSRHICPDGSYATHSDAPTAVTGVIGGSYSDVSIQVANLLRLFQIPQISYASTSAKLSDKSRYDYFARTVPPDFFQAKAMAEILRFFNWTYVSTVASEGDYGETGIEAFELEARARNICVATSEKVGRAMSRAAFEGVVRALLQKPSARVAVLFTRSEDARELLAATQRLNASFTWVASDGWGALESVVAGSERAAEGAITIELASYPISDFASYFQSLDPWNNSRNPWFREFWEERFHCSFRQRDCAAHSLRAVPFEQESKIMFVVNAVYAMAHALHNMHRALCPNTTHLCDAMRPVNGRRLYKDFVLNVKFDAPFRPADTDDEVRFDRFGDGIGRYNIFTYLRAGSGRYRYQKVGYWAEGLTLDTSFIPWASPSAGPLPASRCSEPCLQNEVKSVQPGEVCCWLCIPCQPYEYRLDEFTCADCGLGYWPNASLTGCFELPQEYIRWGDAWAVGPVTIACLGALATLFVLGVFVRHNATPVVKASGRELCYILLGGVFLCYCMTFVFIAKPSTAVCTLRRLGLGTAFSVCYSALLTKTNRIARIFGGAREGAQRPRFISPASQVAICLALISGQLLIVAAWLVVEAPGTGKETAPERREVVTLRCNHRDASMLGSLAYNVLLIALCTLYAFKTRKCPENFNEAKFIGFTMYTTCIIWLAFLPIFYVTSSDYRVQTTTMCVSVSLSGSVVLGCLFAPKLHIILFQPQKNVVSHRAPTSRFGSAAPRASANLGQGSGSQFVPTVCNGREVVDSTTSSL

Regarding `N[C@@]1(C(=O)O)C[C@H](O)[C@@H]2[C@H]1[C@@]2(F)C(=O)O` (racemic) [Comp. 5, (1RS, 2SR, 4SR, 5SR, 6SR)-2-amino-6-fluoro-4-hydroxybicyclo [3.1.0]hexane-2,6-dicarboxylic acid], the IC50 (commonly the concentration needed to halve the response being measured) under setting [1] was determined as 0.0196 µM.

Under setting [1], `N[C@@]1(C(=O)O)CC[C@@H]2[C@H]1[C@@]2(F)C(=O)O` (racemic) [Comp. 1, (1RS, 2SR, 5RS, 6RS)-2-amino-6-fluorobicyclo[3.1.0]hexane-2,6-dicarboxylic acid] showed an IC50 of 0.0342 µM.

In the case of `N[C@@]1(C(=O)O)CC(=O)[C@@H]2[C@H]1[C@@]2(F)C(=O)O` (single isomer, unassigned) [Comp. 4, (+)-(1R*, 2S*, 5S*, 6S*)-2amino-6-fluoro-4-oxobicyclo [3.1.0]hexane-2,6-dicarboxylic acid], the IC50 under setting [1] is 0.00066 µM.

As for `N[C@H](C(=O)O)[C@H]1C[C@@H]1C(=O)O` [L-CCG-I, (2S, 1'S, 2'S)-2-(carboxycyclopropyl)glycine, reference compound], the IC50 under setting [1] came out at 0.121 µM.

With `N[C@@]1(C(=O)O)CC[C@@H](C(=O)O)C1` [(1s,3R)-ACPD, (1S, 3R)-1-aminocyclopentane-1,3-dicarboxylic acid, reference compound], inhibition was half-maximal at 1.5 µM (IC50).

Consider `N[C@@]1(C(=O)O)CC(=O)[C@@H]2[C@H]1[C@@]2(F)C(=O)O` (racemic) [Comp. 3, (1RS, 2SR, 5SR, 6SR)-2-amino-6-fluoro-4-oxobicyclo[3.1.0]hexane-2,6-dicarboxylic acid], for which the concentration for half-maximal inhibition (IC50) under setting [1] is 0.00126 µM.

`N[C@@]1(C(=O)O)CC[C@@H]2[C@H]1[C@@]2(F)C(=O)O` (single isomer, unassigned) [Comp. 2, (-)-(1R*, 2S*, 5R*, 6R*)-2-amino-6-fluorobicyclo[3.1.0]hexane-2,6-dicarboxylic acid] displayed an IC50 under setting [1] of 0.0166 µM.

Under setting [1], `N[C@H](C(=O)O)C1[C@@H](C(=O)O)[C@@H]1C(=O)O` (stereo partly drawn) [DCG IV, (2S, 1'R, 2'R, 3'R)-2-(2', 3'-dicarboxycycloproyl)glycine, reference compound] showed a half-maximal inhibitory concentration (IC50) of 0.0983 µM.
